Experimental data reported in PubChem BioAssay AID256 (DTP/NCI, 2004).
“And” between values parts separate entries of the source, which are not always exact repeats. Equal entries are not always repeated. Toxic doses and inconclusive results are not listed.

Tested on: CD2F1 mice, L1210 leukemia ip, survival T/C
Test: NCI In Vivo Anticancer Drug Screen. Data for tumor model L1210 Leukemia (intraperitoneal) in CD2F1 (CDF1) mice
Conditions: higher = longer survival
How it was run: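 Vehicle-treated tumor-bearing mice served as controls (C) for compound-treated mice (T). Reported figure is T divided by C.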

[1] = endpoint: mean survival time, dose: 25.0 mg/kg/injection, schedule: Q01DX009 (ip), vehicle: saline with Tween-80
[2] = endpoint: mean survival time, dose: 100.0 mg/kg/injection, schedule: Q01DX009 (ip), vehicle: saline with Tween-80
[3] = endpoint: mean survival time, dose: 100.0 mg/kg/injection, schedule: Q04DX003 (ip), vehicle: saline with Tween-80
[4] = endpoint: mean survival time, dose: 200.0 mg/kg/injection, schedule: Q01DX009 (ip), vehicle: saline with Tween-80
[5] = endpoint: mean survival time, dose: 200.0 mg/kg/injection, schedule: Q04DX003 (ip), vehicle: saline with Tween-80
[6] = endpoint: mean survival time, dose: 400.0 mg/kg/injection, schedule: Q01DX009 (ip), vehicle: saline with Tween-80
[7] = endpoint: mean survival time, dose: 400.0 mg/kg/injection, schedule: Q04DX003 (ip), vehicle: saline with Tween-80
[8] = endpoint: mean survival time, dose: 100.0 mg/kg/injection, schedule: Q01DX001 (ip), vehicle: saline with Tween-80
[9] = endpoint: mean survival time, dose: 200.0 mg/kg/injection, schedule: Q01DX001 (ip), vehicle: saline with Tween-80
[10] = endpoint: mean survival time, dose: 100.0 mg/kg/injection, schedule: Q01DX001 (ip), vehicle: saline
[11] = endpoint: mean survival time, dose: 200.0 mg/kg/injection, schedule: Q01DX001 (ip), vehicle: saline
[12] = endpoint: mean survival time, dose: 12.5 mg/kg/injection, schedule: Q01DX009 (ip), vehicle: saline with Tween-80
[13] = endpoint: mean survival time, dose: 200.0 mg/kg/injection, schedule: Q01DX009 (ip), vehicle: saline
[14] = endpoint: mean survival time, dose: 400.0 mg/kg/injection, schedule: Q01DX009 (ip), vehicle: saline
[15] = endpoint: mean survival time, dose: 400.0 mg/kg/injection, schedule: Q01DX001 (ip), vehicle: saline with Tween-80

CC(=O)OC1(C)CC(C)(C)N=N1 (stereo unspecified)
T/C (endpoint: mean survival time, dose: 25.0 mg/kg/injection, schedule: Q01DX009 (ip), vehicle: Klucel (hydroxypropylcellulose) (HPC)): 97 % of control | T/C (endpoint: mean survival time, dose: 50.0 mg/kg/injection, schedule: Q01DX009 (ip), vehicle: Klucel (hydroxypropylcellulose) (HPC)): 99 % of control | T/C (endpoint: mean survival time, dose: 100.0 mg/kg/injection, schedule: Q01DX009 (ip), vehicle: Klucel (hydroxypropylcellulose) (HPC)): 97 % of control | T/C (endpoint: mean survival time, dose: 200.0 mg/kg/injection, schedule: Q01DX009 (ip), vehicle: Klucel (hydroxypropylcellulose) (HPC)): 97 % of control | T/C (endpoint: mean survival time, dose: 400.0 mg/kg/injection, schedule: Q01DX009 (ip), vehicle: Klucel (hydroxypropylcellulose) (HPC)): 97 % of control

N#CC1(Cc2ccc(OCc3ccccc3)c(OCc3ccccc3)c2)c2ccccc2C=CN1C(=O)c1ccccc1 (stereo unspecified)
T/C [1]: 103 % of control | T/C (endpoint: mean survival time, dose: 50.0 mg/kg/injection, schedule: Q01DX009 (ip), vehicle: saline with Tween-80): 100 % of control | T/C [2]: 91 % of control

Cc1cccc(/C=N\OCCc2ccccc2)n1
T/C [2]: 94 % of control | T/C [3]: 100 % of control | T/C [4]: 98 % of control | T/C [5]: 96 % of control | T/C [6]: 93 % of control | T/C [7]: 91 % of control

C1CSC(CC2SCCCS2)SC1
T/C (endpoint: mean survival time, dose: 50.0 mg/kg/injection, schedule: Q01DX001 (ip), vehicle: saline with Tween-80): 97 % of control | T/C [8]: 94 % of control | T/C [9]: 96 % of control

COc1cc2c(c(OC)c1OC)-c1cc(I)c(O)cc1[C@@H](NC(C)=O)CC2
T/C [2]: 98 % of control

COc1ccc(Nc2ccnc3cc(Cl)ccc23)cc1CN(CCCl)CCCl
T/C (endpoint: mean survival time, dose: 6.25 mg/kg/injection, schedule: Q01DX009 (ip), vehicle: saline): 117 % of control | T/C (endpoint: mean survival time, dose: 25.0 mg/kg/injection, schedule: Q01DX009 (ip), vehicle: saline): 88 % of control

CCCCCCCCCCCCCCC[N+]1(CC)CCCCC1
T/C (endpoint: mean survival time, dose: 0.09 mg/kg/injection, schedule: Q01DX009 (ip), vehicle: saline): 102 % of control | T/C (endpoint: mean survival time, dose: 0.19 mg/kg/injection, schedule: Q01DX009 (ip), vehicle: saline): 102 % of control | T/C (endpoint: mean survival time, dose: 0.39 mg/kg/injection, schedule: Q01DX009 (ip), vehicle: saline): 115 % of control | T/C (endpoint: mean survival time, dose: 0.78 mg/kg/injection, schedule: Q01DX009 (ip), vehicle: saline): 103 % of control

NCC1CCCCO1 (stereo unspecified)
T/C (endpoint: mean survival time, dose: 50.0 mg/kg/injection, schedule: Q01DX001 (ip), vehicle: saline): 90 % of control | T/C [10]: 98 % of control | T/C [11]: 93 % of control

CC1=C(N2CC2)C(=O)c2c(COC(N)=O)c3n(c2C1=O)CCC3OC(N)=O (stereo unspecified)
T/C (endpoint: mean survival time, dose: 1.5 mg/kg/injection, schedule: Q01DX001 (ip), vehicle: distilled water + Tween-80): 108 % of control | T/C (endpoint: mean survival time, dose: 3.0 mg/kg/injection, schedule: Q01DX001 (ip), vehicle: distilled water + Tween-80): 109 % of control and 112 % of control | T/C (endpoint: mean survival time, dose: 6.0 mg/kg/injection, schedule: Q01DX001 (ip), vehicle: distilled water + Tween-80): 114 % of control and 121 % of control | T/C (endpoint: mean survival time, dose: 12.0 mg/kg/injection, schedule: Q01DX001 (ip), vehicle: distilled water + Tween-80): 120 % of control | T/C (endpoint: mean survival time, dose: 48.0 mg/kg/injection, schedule: Q01DX001 (ip), vehicle: distilled water + Tween-80): 120 % of control

NC(=O)c1ccccc1N=NN(CCF)CCF
T/C (endpoint: mean survival time, dose: 5.3 mg/kg/injection, schedule: Q04DX003 (ip), vehicle: saline with Tween-80): 103 % of control | T/C (endpoint: mean survival time, dose: 8.0 mg/kg/injection, schedule: Q04DX003 (ip), vehicle: saline with Tween-80): 100 % of control | T/C (endpoint: mean survival time, dose: 12.0 mg/kg/injection, schedule: Q04DX003 (ip), vehicle: saline with Tween-80): 105 % of control

CC1=NN(c2cccc(S(=O)(=O)O)c2)C(=O)C1
T/C (endpoint: mean survival time, dose: 100.0 mg/kg/injection, schedule: Q01DX009 (ip), vehicle: saline sonified): 88 % of control

O=[N+]([O-])CC1CCCCC1O (stereo unspecified)
T/C (endpoint: mean survival time, dose: 6.25 mg/kg/injection, schedule: Q01DX009 (ip), vehicle: saline with Tween-80): 89 % of control | T/C (endpoint: mean survival time, dose: 6.25 mg/kg/injection, schedule: Q04DX003 (ip), vehicle: saline with Tween-80): 102 % of control | T/C [12]: 91 % of control | T/C (endpoint: mean survival time, dose: 12.5 mg/kg/injection, schedule: Q04DX003 (ip), vehicle: saline with Tween-80): 96 % of control | T/C [1]: 94 % of control | T/C (endpoint: mean survival time, dose: 25.0 mg/kg/injection, schedule: Q04DX003 (ip), vehicle: saline with Tween-80): 93 % of control

CC1(C)N=C(N)N=C(N)N1c1ccc(CCC(=O)Nc2ccc(S(=O)(=O)F)cc2)cc1
T/C [12]: 112 % of control | T/C [1]: 117 % of control | T/C [10]: 102 % of control | T/C [2]: 115 % of control | T/C [11]: 111 % of control | T/C [13]: 123 % of control | T/C (endpoint: mean survival time, dose: 300.0 mg/kg/injection, schedule: Q01DX009 (ip), vehicle: saline): 171 % of control | T/C (endpoint: mean survival time, dose: 400.0 mg/kg/injection, schedule: Q01DX001 (ip), vehicle: saline): 120 % of control | T/C [14]: 123 % of control

CC(CSc1ccccc1)NCCO (stereo unspecified)
T/C (endpoint: mean survival time, dose: 25.0 mg/kg/injection, schedule: Q04DX003 (ip), vehicle: saline): 95 % of control | T/C (endpoint: mean survival time, dose: 50.0 mg/kg/injection, schedule: Q04DX003 (ip), vehicle: saline): 94 % of control | T/C (endpoint: mean survival time, dose: 100.0 mg/kg/injection, schedule: Q04DX003 (ip), vehicle: saline): 100 % of control

CC(=O)SCC(C)CCl (stereo unspecified)
T/C (endpoint: mean survival time, dose: 100.0 mg/kg/injection, schedule: Q01DX009 (ip), vehicle: saline): 101 % of control | T/C [13]: 98 % of control | T/C [14]: 104 % of control

CCCCCC[C@@H](O)[C@@H]1C2=C(C[C@H]([C@H](O)[C@@H]3CC=CC(=O)O3)CC3=C(C(=O)OC3=O)[C@@H]1O)C(=O)OC2=O
T/C (endpoint: mean survival time, dose: 0.13 mg/kg/injection, schedule: Q01DX001 (ip), vehicle: saline): 97 % of control | T/C (endpoint: mean survival time, dose: 0.25 mg/kg/injection, schedule: Q01DX001 (ip), vehicle: saline): 95 % of control | T/C (endpoint: mean survival time, dose: 0.5 mg/kg/injection, schedule: Q01DX001 (ip), vehicle: saline): 96 % of control | T/C (endpoint: mean survival time, dose: 1.0 mg/kg/injection, schedule: Q01DX001 (ip), vehicle: saline): 96 % of control | T/C (endpoint: mean survival time, dose: 2.0 mg/kg/injection, schedule: Q01DX001 (ip), vehicle: saline): 96 % of control

C=Cc1cc(OC)c2c(c1)c(=O)oc1c2cc(OC)c2c(O)ccc(C3OC(C)C(O)C(C)(O)C3O)c21 (stereo unspecified)
T/C (endpoint: median survival time, dose: 5.0 mg/kg/injection, schedule: Q01DX009 (ip), vehicle: DMSO): 107 % of control | T/C (endpoint: median survival time, dose: 10.0 mg/kg/injection, schedule: Q01DX009 (ip), vehicle: DMSO): 116 % of control and 111 % of control | T/C (endpoint: median survival time, dose: 10.0 mg/kg/injection, schedule: Q01DX009 (ip), vehicle: other): 118 % of control | T/C (endpoint: median survival time, dose: 20.0 mg/kg/injection, schedule: Q01DX009 (ip), vehicle: DMSO): 116 % of control and 122 % of control | T/C (endpoint: median survival time, dose: 80.0 mg/kg/injection, schedule: Q01DX009 (ip), vehicle: DMSO): 155 % of control | T/C (endpoint: median survival time, dose: 160.0 mg/kg/injection, schedule: Q01DX009 (ip), vehicle: DMSO): 120 % of control | T/C (endpoint: median survival time, dose: 160.0 mg/kg/injection, schedule: Q01DX009 (ip), vehicle: other): 113 % of control

Cc1ccc(C2=C(Br)C(=O)C(c3ccc(C)cc3C)=C(Br)C2=O)c(C)c1
T/C [8]: 92 % of control | T/C [9]: 92 % of control | T/C [15]: 101 % of control

CC(C)C1C=C2CCC3C(C)(C(=O)O)CCCC3(C)C2CC1 (stereo unspecified)
T/C [8]: 96 % of control | T/C [9]: 94 % of control | T/C [15]: 92 % of control

O=C1COC(C(Cl)(Cl)Cl)CN1 (stereo unspecified)
T/C [2]: 98 % of control | T/C [3]: 102 % of control | T/C [4]: 95 % of control | T/C [5]: 100 % of control | T/C [6]: 102 % of control | T/C [7]: 104 % of control

CC(O)C(O)C(O)C(/C=N\N=C(/N)[S-])=N/N=C(\N)[S-].[Pt+2] (stereo unspecified)
T/C [8]: 111 % of control | T/C [2]: 91 % of control | T/C [3]: 88 % of control | T/C [9]: 104 % of control | T/C [4]: 94 % of control | T/C [5]: 96 % of control | T/C [15]: 106 % of control | T/C [6]: 89 % of control | T/C [7]: 89 % of control

Cc1ccnc(N)c1N
T/C (endpoint: mean survival time, dose: 12.5 mg/kg/injection, schedule: Q01DX009 (ip), vehicle: other): 91 % of control | T/C (endpoint: mean survival time, dose: 25.0 mg/kg/injection, schedule: Q01DX009 (ip), vehicle: other): 94 % of control

CCOC(=O)C(C(=O)COC)C(=O)OCC
T/C (endpoint: mean survival time, dose: 25.0 mg/kg/injection, schedule: Q01DX009 (ip), vehicle: water): 102 % of control | T/C (endpoint: mean survival time, dose: 50.0 mg/kg/injection, schedule: Q01DX009 (ip), vehicle: water): 97 % of control | T/C (endpoint: mean survival time, dose: 100.0 mg/kg/injection, schedule: Q01DX009 (ip), vehicle: water): 97 % of control | T/C (endpoint: mean survival time, dose: 200.0 mg/kg/injection, schedule: Q01DX009 (ip), vehicle: water): 94 % of control
